Experimental data from patent US10806142B2, “2-amino-5-ketoxime-pyrimidine derivatives and their use for controlling undesired plant growth” (Bayer CropScience Aktiengesellschaft, priority 2015, dated 2020).

Columns and labels:
[1] = logp (HCOOH), physicochemical characterization; settings: HCOOH (formic acid)
Veronica persica = assay: Pre-emergence herbicidal effect; assay type: in vivo
Description: (§1) 1. Pre-Emergence Herbicidal Effect and Crop Plant Compatibility Seeds of monocotyledonous and dicotyledonous weed plants and crop plants are laid out in wood-fiber pots in sandy loam and covered with soil. The compounds of the invention, formulated in the form of wettable powders (WP) or as emulsion concentrates (EC), are then applied to the surface of the covering soil as aqueous suspension or emulsion at a water application rate equating to 600 to 800 L/ha with addition of 0.2% wetting agent. After the treatment, the pots are placed in a greenhouse and kept under good growth conditions for the trial plants. The damage to the trial plants is scored visually after a trial duration of 3 weeks by comparison with untreated controls (herbicidal activity in percent (%): 100% efficacy=the plants have died, 0% efficacy=like control plants). [table]

Matricaria inodora [2] = assay: Pre-emergence herbicidal effect; assay type: in vivo
Description: as §1

Amaranthus retroflexus = assay: Pre-emergence herbicidal effect; assay type: in vivo
Description: as §1

Echinochloa crus-galli = assay: Pre-emergence herbicidal effect; assay type: in vivo; settings: dosage 320 g a.i./ha
Description: as §1

Setaria viridis [3] = assay: Pre-emergence herbicidal effect; assay type: in vivo; settings: dosage 320 g a.i./ha
Description: as §1

Stellaria media [4] = assay: Pre-emergence herbicidal effect; assay type: in vivo
Description: as §1

Viola tricolor [5] = assay: Pre-emergence herbicidal effect; assay type: in vivo
Description: as §1

Polygpnum convolvulus [6] = assay: Post-emergence herbicidal effect; assay type: in vivo
Method: (§2) [table] 2. Post-Emergence Herbicidal Effect and Crop Plant Compatibility Seeds of monocotyledonous and dicotyledonous weed and crop plants are laid out in sandy loam in wood-fiber pots, covered with soil and cultivated in a greenhouse under good growth conditions. 2 to 3 weeks after sowing, the test plants are treated at the one-leaf stage. The compounds of the invention, formulated in the form of wettable powders (WP) or as emulsion concentrates (EC), are then sprayed onto the green parts of the plants as aqueous suspension or emulsion at a water application rate equating to 600 to 800 L/ha with addition of 0.2% wetting agent. After the trial plants have been left to stand in a greenhouse under optimal growth conditions for about 3 weeks, the efficacy of the formulations is scored visually in comparison to untreated controls (herbicidal action in percent (%): 100% efficacy=the plants have died, 0% efficacy=like control plants).

Abutilon theophrasti = assay: Post-emergence herbicidal effect; assay type: in vivo; settings: visual score after about 3 weeks
Method: as §2

Stellaria media [7] = assay: Post-emergence herbicidal effect; assay type: in vivo; settings: visual score after about 3 weeks
Method: as §2

Viola tricolor [8] = assay: Post-emergence herbicidal effect; assay type: in vivo
Method: as §2

Polygpnum convolvulus [9] = assay: Pre-emergence herbicidal effect; assay type: in vivo; settings: dosage 320 g a.i./ha
Description: as §1

Ipomoea purpurea = assay: Post-emergence herbicidal effect; assay type: in vivo
Method: as §2

Matricaria inodora [10] = assay: Post-emergence herbicidal effect; assay type: in vivo; settings: dosage 320 g a.i./ha, visual score after about 3 weeks
Method: as §2

Setaria viridis [11] = assay: Post-emergence herbicidal effect; assay type: in vivo; settings: dosage cell empty
Method: as §2

[12] = dosage 80 g a.i./ha, visual score after about 3 weeks
[13] = dosage 320 g a.i./ha, visual score after about 3 weeks
[14] = dosage cell empty, first line of the compound

chromatographic logP [1] | Compound | Herbicidal activity against VERPE (Veronica persica; dosage 80 g a.i./ha) [%] | Herbicidal activity against VERPE (Veronica persica; dosage 320 g a.i./ha) [%] | Herbicidal activity against MATIN (Matricaria inodora [2]; dosage 320 g a.i./ha) [%] | Herbicidal activity against AMARE (Amaranthus retroflexus; dosage 320 g a.i./ha) [%] | Herbicidal activity against ECHCG (Echinochloa crus-galli) [%] | Herbicidal activity against SETVI (Setaria viridis [3]) [%] | Herbicidal activity against STEME (Stellaria media [4]; dosage 80 g a.i./ha) [%] | Herbicidal activity against STEME (Stellaria media [4]; dosage 320 g a.i./ha) [%] | Herbicidal activity against VIOTR (Viola tricolor [5]; dosage 80 g a.i./ha) [%] | Herbicidal activity against VIOTR (Viola tricolor [5]; dosage 320 g a.i./ha) [%] | Herbicidal activity against POLCO (Polygpnum convolvulus [6]; [12]) [%] | Herbicidal activity against POLCO (Polygpnum convolvulus [6]; [13]) [%] | Herbicidal activity against ABUTH (Abutilon theophrasti; dosage 320 g a.i./ha) [%] | Herbicidal activity against STEME (Stellaria media [7]; dosage 80 g a.i./ha) [%] | Herbicidal activity against STEME (Stellaria media [7]; dosage 320 g a.i./ha) [%] | Herbicidal activity against VIOTR (Viola tricolor [8]; [12]) [%] | Herbicidal activity against VIOTR (Viola tricolor [8]; [13]) [%] | Herbicidal activity against POLCO (Polygpnum convolvulus [9]) [%] | also measured
3.86 | CCCC/C(=N\O)c1cnc(N[C@H]2c3cc(C)ccc3C[C@@H]2C)nc1 [Compound 1.85a, N-[(1R,2S)-2,6-Dimethyl-2,3-dihydro-1H-inden-1-yl]-5-[(1E)-N-hydroxypentanimidoyl]pyrimidine-2-amine] | 100 | 100 | 100 | 80 | 100 | 100 | 100 | 100 | 100 | 100 | 80 | 80 | 100 | 80 | 90 | 80 | 90 | – | Herbicidal activity against ABUTH (Abutilon theophrasti; dosage 80 g a.i./ha): 80%
4.1 | CCCC/C(=N/O)c1cnc(N[C@H]2c3cc(C)ccc3C[C@@H]2C)nc1 [Compound 1.85b, N-[(1R,2S)-2,6-dimethyl-2,3-dihydro-1H-inden-1-yl]-5-[(1Z)-N-hydroxypentanimidoyl]pyrimidine-2-amine] | 100 | 100 | 80 | 80 | – | – | 100 | 100 | 100 | 100 | – | – | – | – | – | – | – | 90 | –
– | CCO/N=C(\C)c1cnc(N[C@H]2c3cc(C)ccc3C[C@@H]2C)nc1 [Compound 1.103a, N-[(1R,2S)-2,6-Dimethyl-2,3-dihydro-1H-inden-1-yl]-5-[(1E)-N-ethoxyethanimidoyl]pyrimidine-2-amine] | – | – | 100 | 100 | 100 | 100 | 100 | 100 | 100 | 100 | 90 | 100 | 90 | 90 | 90 | 90 | 90 | 100 | Herbicidal activity against MATIN (Matricaria inodora [2]; dosage 80 g a.i./ha): 90%; Herbicidal activity against AMARE (Amaranthus retroflexus; dosage 80 g a.i./ha): 100%; Herbicidal activity against PHBPU (Ipomoea purpurea; [12]): 80%; Herbicidal activity against PHBPU (Ipomoea purpurea; [13]): 90%; Herbicidal activity against MATIN (Matricaria inodora [10]): 80%
– | CC/C(=N/OCc1ccc(Cl)cc1)c1cnc(N[C@H]2c3cc(C)ccc3C[C@@H]2C)nc1CC [Compound 1.115b, 5-{(1Z)-N-[(4-Chlorobenzyl)oxy]propanimidoyl}-N-[(1R,2S)-2,6-dimethyl-2,3-dihydro-1H-inden-1-yl]-4-ethylpyrimidine-2-amine] | 100 | 100 | 90 | – | – | – | – | 100 | 90 | 100 | – | – | – | – | – | – | – | – | Herbicidal activity against PHBPU (Ipomoea purpurea; [14]): 90%; Herbicidal activity against POLCO (Polygpnum convolvulus [6]; [14]): 80%; Herbicidal activity against SETVI (Setaria viridis [11]; first line of the compound): 100%; Herbicidal activity against SETVI (Setaria viridis [11]; second line of the compound): 80%; Herbicidal activity against VIOTR (Viola tricolor [8]; [14]): 90%; Herbicidal activity against VIOTR (Viola tricolor [8]; dosage cell empty, second line of the compound): 80%
